Results: publication PMC6563162 (Viruses, 2019)

How the values were obtained:
Experiment in all cases: flow cytometry, inhibition of purified knob binding to HCE cells
Type in all cases: cell-based
Details in all cases: knob preincubated with ME0462, 1 h, 4 °C; human corneal epithelial cells
HAdV-D54 fiber knob = biological target: T1, HAdV-D54 fiber knob (Human adenovirus 54, UniProt B9A5P2)
T1 construct: gene L5

HAdV-D37/64 fiber knob = biological target: T2, HAdV-D37/64 fiber knob (Human adenovirus D37, UniProt Q64823)
T2 construct: gene L5; N-terminal RGS-His tag kept (pQE30-Xa); E. coli M15; Ni-NTA and Q-sepharose

HAdV-D8/53 fiber knob = biological target: T3, HAdV-D8/53 fiber knob (Human adenovirus D8, UniProt P36845)
T3 construct: gene L5

## ME0462
HAdV-D54 fiber knob
  % inhibition at 80 μM: 60%
HAdV-D37/64 fiber knob
  % inhibition at 80 μM: 70%
HAdV-D8/53 fiber knob
  % inhibition at 80 μM: 60%
